Tests used:
HeLa = assay: Selectivity ratio, ratio of DC50 for VHL1/SMARCA4 in human genetically modified Hela cells to VHL1/SMARCA2 in human genetically modified Hela cells; assay type: cell-based
[1] = target: T1, von Hippel-Lindau disease tumor suppressor/SWI/SNF-related matrix-associated actin-dependent regulator of chromatin subfamily A member 4 (Homo sapiens, UniProt P51532+P40337); assay: PROTAC activity at VHL1/SMARCA4 in human genetically modified Hela cells assessed as degradation measured after 24 hrs incubation by Nano-Glo HiBiT Lytic Detection Assay; assay type: cell-based
Target sequence in this assay (P51532 whole entry): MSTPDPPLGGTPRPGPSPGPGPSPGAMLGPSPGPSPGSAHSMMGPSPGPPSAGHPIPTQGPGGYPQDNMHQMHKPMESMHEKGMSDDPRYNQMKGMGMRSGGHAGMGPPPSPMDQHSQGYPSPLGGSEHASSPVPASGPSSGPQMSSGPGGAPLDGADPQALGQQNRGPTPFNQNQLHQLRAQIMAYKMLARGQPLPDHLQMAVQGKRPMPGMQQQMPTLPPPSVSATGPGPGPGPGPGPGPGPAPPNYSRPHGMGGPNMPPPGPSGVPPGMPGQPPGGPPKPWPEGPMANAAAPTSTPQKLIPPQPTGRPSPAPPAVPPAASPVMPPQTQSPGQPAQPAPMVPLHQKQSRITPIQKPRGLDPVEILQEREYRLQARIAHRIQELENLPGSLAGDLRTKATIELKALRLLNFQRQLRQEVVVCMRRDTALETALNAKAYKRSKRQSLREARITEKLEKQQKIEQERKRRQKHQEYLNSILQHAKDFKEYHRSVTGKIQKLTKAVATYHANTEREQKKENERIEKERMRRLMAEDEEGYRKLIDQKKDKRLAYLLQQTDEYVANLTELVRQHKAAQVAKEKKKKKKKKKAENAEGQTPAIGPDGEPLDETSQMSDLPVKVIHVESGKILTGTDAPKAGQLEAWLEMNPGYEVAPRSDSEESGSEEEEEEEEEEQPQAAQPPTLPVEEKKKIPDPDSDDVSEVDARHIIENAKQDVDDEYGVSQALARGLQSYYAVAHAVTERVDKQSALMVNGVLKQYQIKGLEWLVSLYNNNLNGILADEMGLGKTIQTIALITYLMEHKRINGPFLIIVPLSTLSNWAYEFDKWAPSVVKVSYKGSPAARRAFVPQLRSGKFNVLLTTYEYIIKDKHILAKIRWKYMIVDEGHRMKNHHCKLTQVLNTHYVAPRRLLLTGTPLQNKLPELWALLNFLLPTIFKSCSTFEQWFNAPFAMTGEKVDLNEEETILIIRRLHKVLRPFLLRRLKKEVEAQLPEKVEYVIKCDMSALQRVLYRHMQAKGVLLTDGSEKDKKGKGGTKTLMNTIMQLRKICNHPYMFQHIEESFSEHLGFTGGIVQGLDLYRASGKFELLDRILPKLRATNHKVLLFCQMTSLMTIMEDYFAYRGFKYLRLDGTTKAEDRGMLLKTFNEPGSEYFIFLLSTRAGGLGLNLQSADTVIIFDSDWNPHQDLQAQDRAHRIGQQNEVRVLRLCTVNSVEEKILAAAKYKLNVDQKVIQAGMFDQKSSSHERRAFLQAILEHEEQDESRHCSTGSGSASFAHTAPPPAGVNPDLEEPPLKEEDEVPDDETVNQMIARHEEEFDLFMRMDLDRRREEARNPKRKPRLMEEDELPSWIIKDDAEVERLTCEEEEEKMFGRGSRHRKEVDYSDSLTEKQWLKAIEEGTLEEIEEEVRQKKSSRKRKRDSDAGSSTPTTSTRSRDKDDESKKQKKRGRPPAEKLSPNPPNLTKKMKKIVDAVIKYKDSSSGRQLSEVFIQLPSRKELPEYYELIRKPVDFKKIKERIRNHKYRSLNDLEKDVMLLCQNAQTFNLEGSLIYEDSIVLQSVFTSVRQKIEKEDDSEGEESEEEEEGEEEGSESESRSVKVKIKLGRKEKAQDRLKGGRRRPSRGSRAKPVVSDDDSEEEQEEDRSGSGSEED
Target sequence in this assay (P40337 whole entry): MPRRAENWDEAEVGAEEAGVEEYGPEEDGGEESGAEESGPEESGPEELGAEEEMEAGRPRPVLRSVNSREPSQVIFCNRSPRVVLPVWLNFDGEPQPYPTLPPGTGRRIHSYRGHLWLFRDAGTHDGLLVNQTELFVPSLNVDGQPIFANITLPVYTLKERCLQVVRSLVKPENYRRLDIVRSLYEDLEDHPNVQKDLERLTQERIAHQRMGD

[2] = target: T1, von Hippel-Lindau disease tumor suppressor/SWI/SNF-related matrix-associated actin-dependent regulator of chromatin subfamily A member 4; assay: PROTAC activity at VHL1/SMARCA4 in human genetically modified Hela cells assessed as maximal degradation measured after 24 hrs incubation by Nano-Glo HiBiT Lytic Detection Assay relative to control; assay type: cell-based
Target sequence in this assay (P40337 whole entry, looked up): as the sequence (P40337 whole entry) above
Target sequence in this assay (P51532 whole entry, looked up): as the sequence (P51532 whole entry) above

[3] = target: T2, von Hippel-Lindau disease tumor suppressor/SWI/SNF-related matrix-associated actin-dependent regulator of chromatin subfamily A member 2 (Homo sapiens, UniProt P51531+P40337); assay: PROTAC activity at VHL1/SMARCA2 in human genetically modified Hela cells assessed as degradation measured after 24 hrs incubation by Nano-Glo HiBiT Lytic Detection Assay; assay type: cell-based
Target sequence in this assay (P51531 whole entry): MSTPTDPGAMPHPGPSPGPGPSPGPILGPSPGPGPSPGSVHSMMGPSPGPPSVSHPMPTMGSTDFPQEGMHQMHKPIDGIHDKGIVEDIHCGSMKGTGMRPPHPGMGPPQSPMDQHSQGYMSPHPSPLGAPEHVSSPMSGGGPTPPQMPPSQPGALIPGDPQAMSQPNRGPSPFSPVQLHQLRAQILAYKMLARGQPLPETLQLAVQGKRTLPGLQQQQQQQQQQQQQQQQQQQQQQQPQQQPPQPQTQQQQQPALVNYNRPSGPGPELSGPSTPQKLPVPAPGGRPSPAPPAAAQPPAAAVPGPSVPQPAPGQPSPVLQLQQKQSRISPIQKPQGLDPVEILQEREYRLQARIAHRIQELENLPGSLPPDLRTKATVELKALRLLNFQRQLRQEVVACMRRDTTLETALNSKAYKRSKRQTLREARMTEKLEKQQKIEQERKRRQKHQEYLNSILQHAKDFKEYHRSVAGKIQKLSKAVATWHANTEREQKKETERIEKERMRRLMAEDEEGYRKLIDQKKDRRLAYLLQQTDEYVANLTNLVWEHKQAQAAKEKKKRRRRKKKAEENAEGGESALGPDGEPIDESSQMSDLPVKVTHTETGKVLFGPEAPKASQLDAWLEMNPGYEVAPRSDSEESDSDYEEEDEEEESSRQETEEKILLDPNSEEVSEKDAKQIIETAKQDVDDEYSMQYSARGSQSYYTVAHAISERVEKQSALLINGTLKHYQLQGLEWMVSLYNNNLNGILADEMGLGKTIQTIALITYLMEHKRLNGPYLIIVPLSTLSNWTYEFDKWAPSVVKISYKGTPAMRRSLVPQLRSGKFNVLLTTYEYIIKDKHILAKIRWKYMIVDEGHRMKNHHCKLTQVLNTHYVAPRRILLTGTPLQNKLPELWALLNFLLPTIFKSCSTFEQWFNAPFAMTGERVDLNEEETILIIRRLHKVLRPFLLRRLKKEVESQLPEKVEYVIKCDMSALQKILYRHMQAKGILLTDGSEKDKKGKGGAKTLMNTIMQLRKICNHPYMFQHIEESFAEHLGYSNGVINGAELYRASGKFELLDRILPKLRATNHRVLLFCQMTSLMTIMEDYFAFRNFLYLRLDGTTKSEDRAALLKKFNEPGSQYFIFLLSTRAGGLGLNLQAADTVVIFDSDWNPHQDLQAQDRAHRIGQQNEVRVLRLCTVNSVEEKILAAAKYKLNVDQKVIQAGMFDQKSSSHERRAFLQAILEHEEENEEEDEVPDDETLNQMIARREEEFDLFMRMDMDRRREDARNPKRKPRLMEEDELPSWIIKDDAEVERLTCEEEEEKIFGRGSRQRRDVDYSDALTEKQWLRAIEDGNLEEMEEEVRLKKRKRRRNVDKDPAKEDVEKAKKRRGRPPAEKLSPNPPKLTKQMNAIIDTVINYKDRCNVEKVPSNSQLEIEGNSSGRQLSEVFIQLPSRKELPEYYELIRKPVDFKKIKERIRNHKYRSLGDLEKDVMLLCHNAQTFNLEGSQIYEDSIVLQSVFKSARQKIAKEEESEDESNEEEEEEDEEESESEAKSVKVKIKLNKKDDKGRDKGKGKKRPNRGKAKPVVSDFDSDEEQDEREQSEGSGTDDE
Target sequence in this assay (P40337 whole entry): as the sequence (P40337 whole entry) above

[4] = target: T2, von Hippel-Lindau disease tumor suppressor/SWI/SNF-related matrix-associated actin-dependent regulator of chromatin subfamily A member 2; assay: PROTAC activity at VHL1/SMARCA2 in human genetically modified Hela cells assessed as maximal degradation measured after 24 hrs incubation by Nano-Glo HiBiT Lytic Detection Assay relative to control; assay type: cell-based
Target sequence in this assay (P40337 whole entry, looked up): as the sequence (P40337 whole entry) above
Target sequence in this assay (P51531 whole entry, looked up): as the sequence (P51531 whole entry) above

[5] = target: SWI/SNF-related matrix-associated actin-dependent regulator of chromatin subfamily A member 4 (Homo sapiens, UniProt P51532); assay: Inhibition of recombinant human GST-tagged SMARCA4 bromodomain measured after 120 mins incubation by TR-FRET assay
Sequence of SWI/SNF-related matrix-associated actin-dependent regulator of chromatin subfamily A member 4 (P51532 whole entry): as the sequence (P51532 whole entry) above

[6] = target: SWI/SNF-related matrix-associated actin-dependent regulator of chromatin subfamily A member 2 (Homo sapiens, UniProt P51531); assay: Inhibition of recombinant human GST-tagged SMARCA2 bromodomain measured after 120 mins incubation by TR-FRET assay
Sequence of SWI/SNF-related matrix-associated actin-dependent regulator of chromatin subfamily A member 2 (P51531 whole entry): as the sequence (P51531 whole entry) above

SMILES	Ratio (HeLa)	DC50 [1]	Emax [2]	DC50 [3]	Emax [4]	IC50 [5]	IC50 [6]
Cc1ncsc1-c1ccc([C@H](C)NC(=O)[C@@H]2C[C@@H](O)CN2C(=O)[C@@H](NC(=O)[C@H]2CC[C@H](CN3CCC(c4ccc5c(c4)C4(CCCCC4)c4nc(=O)c6c(Br)cccc6n4-5)CC3)CC2)C(C)(C)C)cc1	54	162 nM	58%	3 nM	93%		
O=c1nc2n(c3cccc(O)c13)-c1cc(C3CCNCC3)ccc1C21CCCCC1						3210 nM	4520 nM
O=c1nc2n(c3cccc(Cl)c13)-c1ccc(C3CCNCC3)cc1C21CCCCCC1						129 nM	153 nM
Cc1ncsc1-c1ccc([C@H](C)NC(=O)[C@@H]2C[C@@H](O)CN2C(=O)[C@@H](NC(=O)CN2CCC(c3ccc4c(c3)C3(CCCCC3)c3nc(=O)c5c(Cl)cccc5n3-4)CC2)C(C)(C)C)cc1	2	8.7 nM	97%	5.3 nM	97%		
Cc1ncsc1-c1ccc([C@H](C)NC(=O)[C@@H]2C[C@@H](O)CN2C(=O)[C@@H](NC(=O)CCCCN2CCC(c3ccc4c(c3)C3(CCCCC3)c3nc(=O)c5c(Cl)cccc5n3-4)CC2)C(C)(C)C)cc1	> 950	> 10000 nM	> 39%	105 nM	88%		
O=c1nc2n(c3cccc(Cl)c13)-c1cc(C3CCNCC3)ccc1C21CCCC1						133 nM	106 nM
Cc1ncsc1-c1ccc([C@H](C)NC(=O)[C@@H]2C[C@@H](O)CN2C(=O)[C@@H](NC(=O)CCN2CCC(c3ccc4c(c3)C3(CCCCC3)c3nc(=O)c5c(Cl)cccc5n3-4)CC2)C(C)(C)C)cc1	6	543 nM	77%	99 nM	93%		
O=c1nc2n(c3cccc(Br)c13)-c1ccc(C3CCNCC3)cc1C21CCCC1						51 nM	62 nM
CCc1cccc2c1c(=O)nc1n2-c2cc(C3CCNCC3)ccc2C12CCCCC2						2840 nM	3400 nM
O=c1nc2n(c3cccc(Cl)c13)-c1ccc(C3CCNCC3)cc1C21CCNCC1						3340 nM	3450 nM
O=c1nc2n(c3cccc(Cl)c13)-c1ccc(C3CCNCC3)cc1C21CCOCC1						612 nM	538 nM
Cc1ncsc1-c1ccc([C@H](CCCCCN2CCC(c3ccc4c(c3)-n3c(nc(=O)c5c(Cl)cccc53)C43CCCCC3)CC2)NC(=O)[C@@H]2C[C@@H](O)CN2C(=O)[C@@H](NC(=O)C2(F)CC2)C(C)(C)C)cc1	3	22 nM	87%	7.5 nM	92%		
Cc1ncsc1-c1ccc([C@H](C)NC(=O)[C@@H]2C[C@@H](O)CN2C(=O)[C@@H](c2cc(N3CCC(CN4CCC(O[C@H]5C[C@H](Oc6cc(CN7C8CCC7CN(c7cc(-c9ccccc9O)nnc7N)C8)ccn6)C5)CC4)CC3)no2)C(C)C)cc1	13	1.3 nM	96%	0.1 nM	97%		
Cc1ncsc1-c1ccc([C@H](CCCCCN2CCC(c3ccc4c(c3)C3(CCCCC3)c3nc(=O)c5c(Br)cccc5n3-4)CC2)NC(=O)[C@@H]2C[C@@H](O)CN2C(=O)[C@@H](NC(=O)C2(F)CC2)C(C)(C)C)cc1	7	1.7 nM	97%	0.24 nM	97%		
O=c1nc2n(c3cccc(Cl)c13)-c1cc(C3CCNCC3)ccc1C21CCOCC1						1150 nM	630 nM
O=c1nc2n(c3cccc(Br)c13)-c1cc(C3CCNCC3)ccc1C21CCCCC1						90 nM	64 nM
O=c1nc2n(c3cccc(Br)c13)-c1ccc(C3CCNCC3)cc1C21CCCCC1						38 nM	30 nM
Cc1ncsc1-c1ccc([C@H](C)NC(=O)[C@@H]2C[C@@H](O)CN2C(=O)[C@@H](NC(=O)[C@H]2CC[C@H](CN3CCC(c4ccc5c(c4)-n4c(nc(=O)c6c(Br)cccc64)C54CCCCC4)CC3)CC2)C(C)(C)C)cc1	> 700	> 10000 nM	37%	14 nM	88%		
O=c1nc2n(c3ccnc(O)c13)-c1cc(C3CCNCC3)ccc1C21CCCCC1						> 10000 nM	> 10000 nM
O=c1nc2n(c3cccc(Cl)c13)-c1ccc(C3CCNCC3)cc1C21CCCCC1							53 nM
O=c1nc2n(c3nccc(O)c13)-c1cc(C3CCNCC3)ccc1C21CCCCC1						> 10000 nM	> 10000 nM
Cc1ncsc1-c1ccc([C@H](C)NC(=O)[C@@H]2C[C@@H](O)CN2C(=O)[C@@H](NC(=O)[C@H]2CC[C@H](CN3CC4(CCC(n5cc(-c6cc(-c7ccccc7O)nnc6N)cn5)CC4)C3)CC2)C(C)(C)C)cc1	39	895 nM	52%	23 nM	93%		
Cc1ncsc1-c1ccc([C@H](CCCCCN2CCC(c3ccc4c(c3)-n3c(nc(=O)c5c(Br)cccc53)C43CCCCC3)CC2)NC(=O)[C@@H]2C[C@@H](O)CN2C(=O)[C@@H](NC(=O)C2(F)CC2)C(C)(C)C)cc1	28	84 nM	93%	3 nM	95%		
Cc1ncsc1-c1ccc([C@H](C)NC(=O)[C@@H]2C[C@@H](O)CN2C(=O)[C@@H](NC(=O)CCCCCN2CCC(c3ccc4c(c3)C3(CCCCC3)c3nc(=O)c5c(Cl)cccc5n3-4)CC2)C(C)(C)C)cc1	24	697 nM	55%	29 nM	94%		
Cc1ncsc1-c1ccc([C@H](C)NC(=O)[C@@H]2C[C@@H](O)CN2C(=O)[C@@H](NC(=O)[C@H]2CC[C@H](CN3CCC(c4ccc5c(c4)C4(CCCCC4)c4nc(=O)c6c(Cl)cccc6n4-5)CC3)CC2)C(C)(C)C)cc1	> 1500	> 10000 nM	48%		92%		
O=c1nc2n(c3cccc(Cl)c13)-c1ccc(C3CCNCC3)cc1C21CCCC1						55 nM	56 nM
O=c1nc2n(C3CCCC3)c3cc(C4CCNCC4)ccc3n2c2cccc(Br)c12						83 nM	45 nM
O=c1nc2n(c3ccccc13)-c1cc(C3CCNCC3)ccc1C21CCCCC1						1440 nM	3070 nM
Cc1ncsc1-c1ccc([C@H](C)NC(=O)[C@@H]2C[C@@H](O)CN2C(=O)[C@@H](NC(=O)CCCN2CCC(c3ccc4c(c3)C3(CCCCC3)c3nc(=O)c5c(Cl)cccc5n3-4)CC2)C(C)(C)C)cc1	115	7000 nM	70%	61 nM	87%		

From ChEMBL document CHEMBL6153041, “Discovery of High-Affinity SMARCA2/4 Bromodomain Ligands and Development of Potent and Exceptionally Selective SMARCA2 PROTAC Degraders” (J Med Chem, 2025)
